From PMC6737244, “Cathelicidin Peptides Restrict Bacterial Growth via Membrane Perturbation and Induction of Reactive Oxygen Species” (mBio, 2019)
Ends that are not written are not given here.

What was measured:
[1] = test system: Enterobacter cloacae OC4080; type: cell-based
Method: (§1) MICs were determined by using the broth microdilution method based on the general recommendations of the Clinical and Laboratory Standards Institute (CLSI). Bacteria were grown in CAMHB overnight. They were then diluted into fresh medium the following morning and grown to early log phase. The cultures were then diluted to approximately 5 × 10^5 CFU ml^−1, and 100 μl was added to sterile 96-well polypropylene microtiter plates (Corning, NY, USA) preloaded with twofold dilutions of antimicrobial peptides. […] All MIC assays were determined from at least three independent assays.

[2] = test system: Enterobacter cloacae OC4092; type: cell-based
Method: as §1

[3] = test system: Escherichia coli ATCC 25922; type: cell-based
Method: as §1

[4] = test system: Escherichia coli ATCC 35218; type: cell-based
Method: as §1

Escherichia coli MC4100a = type: cell-based
Method: as §1

Escherichia coli OC4075 = type: cell-based
Method: as §1

Escherichia coli UTI89 = type: cell-based
Method: as §1

[5] = test system: Klebsiella pneumoniae 262 (NDM1+); type: cell-based
Method: as §1

[6] = test system: Klebsiella pneumoniae 88 (NDM1+); type: cell-based
Method: as §1

[7] = test system: Klebsiella pneumoniae ATCC 700603; type: cell-based
Method: as §1

Klebsiella pneumoniae C2 = type: cell-based
Method: as §1

[8] = test system: Klebsiella pneumoniae OC4110; type: cell-based
Method: as §1

[9] = test system: Klebsiella pneumoniae OC8893; type: cell-based
Method: as §1

[10] = test system: Pseudomonas aeruginosa ATCC 27853; type: cell-based
Method: as §1

[11] = test system: Pseudomonas aeruginosa OC4083; type: cell-based
Method: as §1

[12] = test system: Pseudomonas aeruginosa PAO1; type: cell-based
Method: as §1

V. cholerae [13] = assay: SYTOX Green membrane damage, single-cell imaging; type: cell-based, Vibrio cholerae; details: for Number of fluorescent cells: V. cholerae, 25, 50 or 100 nM peptide (Fig. S4; legend says SYTOX Green)
Method: To better understand the membrane blebbing event, V. cholerae was treated with B22 in the presence of SYTOX Green and imaged on agarose pads to stabilize cells with compromised envelopes. SYTOX Green is a fluorescent nucleic acid stain that is impermeant to live cells and is used to distinguish dead or dying cells in a population ([17]). Cells were treated with a sublethal (1 μM) concentration of B22 in order to visualize physiological changes in susceptible and unaffected cells simultaneously. Time-lapse phase-contrast imaging was used to monitor tip-to-tip cell length and membrane integrity.
SYTOX Green (Invitrogen, Carlsbad, CA, USA) uptake was used to monitor the effect of the AMPs on bacterial membranes. Mid-log cells were resuspended in CAMHB to 1 × 10^6 CFU/ml and seeded into microfluidic chambers as described above. The cells were then flushed with medium containing 0.1 μM SYTOX Green for 5 min. The same medium was used for control cells, while the medium for treatment samples also included AMP at the indicated concentration. Fluorescence was detected by microscopy as described earlier using the GFP filter set.

V. cholerae [14] = assay: Single-cell real-time phase-contrast imaging in microfluidic chambers; type: cell-based, Vibrio cholerae; details: 2 μM peptide, continuous flow
Method: To better understand the antimicrobial activity of the peptides, we developed a single-cell, real-time imaging assay to monitor the disruption of V. cholerae cells. Bacteria were seeded into microfluidic chambers and grown under continuous flow before imaging by phase-contrast microscopy. Untreated V. cholerae cells retained their characteristic comma shape, cell length (1 by 2 μm), and membrane integrity (Fig. S2). Conversely, cells treated with 2 μM B22 (or B22a) began losing their shape and were noticeably shorter within 30 s (Fig. S2).
Imaging of individual cells was conducted using the CellAsic microfluidic perfusion system (ONIX) with integrated temperature controller and B04A bacterial microfluidic plates (EMD Millipore, Billerica, MA). The CellAsic ONIX FG software (v 5.0.2.0) was used to control flow rate and deliver fresh medium with or without antimicrobial peptide (AMP). The chambers were loaded by perfusion of 50 μl of a 10^6 cells/ml bacterial suspension at 2 lb/in^2 for 15 s to prime the cells followed by 4 lb/in^2 for 15 s to trap the cells. The chamber was then rinsed at 1 lb/in^2 for 30 s followed by 5 lb/in^2 for 5 min. To quickly switch solutions, medium was perfused at 10 lb/in^2 for 10 s, and then flow was reduced to 2 lb/in^2 for the remainder of the imaging.

S. aureus [15] = assay: Growth of cultures (OD600) with sublethal peptide; type: cell-based, Staphylococcus aureus; details: for Effect on growth of S. aureus cultures: 30 nM peptide, CAMHB, OD600
Method: To examine this further, we monitored the growth of S. aureus cultures after the addition of 30 nM B22 or B22a. This concentration is in the biologically relevant range of peptide that is produced by mammals ([13]). […] Cell growth recovered at later time points (data not shown).

S. aureus [16] = assay: CellROX ROS production, imaging; type: cell-based, Staphylococcus aureus; details: for CellROX oxidative signal, parental strain: S. aureus WT; for CellROX oxidative signal, parental strain / CellROX oxidative signal, sodA or sodM null mutants: 100 nM, 30 min; for CellROX oxidative signal, sodA or sodM null mutants: S. aureus sodA or sodM
Source text: (§2) The growth rate of the sodA mutant in the absence of peptide was lower than that of the wild type (WT), underscoring the importance of effectively controlling O2^− accumulation.

E. faecalis = assay: CellROX ROS production, imaging; type: cell-based, Enterococcus faecalis; details: 500 nM, 2.5 μM CellROX
Source text: as §2

E. coli = assay: Growth of cultures (OD600) with sublethal peptide; details: nanomolar (30 nM) peptide, means of four data sets
E. cloacae = assay: Growth of cultures (OD600) with sublethal peptide; details: nanomolar (30 nM) peptide, means of four data sets
V. cholerae [17] = assay: Growth of cultures (OD600) with sublethal peptide; details: nanomolar (30 nM) peptide, means of four data sets

Substance | MIC [1] [µM] | MIC [2] [µM] | MIC [3] [µM] | MIC [4] [µM] | MIC (Escherichia coli MC4100a) [µM] | MIC (Escherichia coli OC4075) [µM] | MIC (Escherichia coli UTI89) [µM] | MIC [5] [µM] | MIC [6] [µM] | MIC [7] [µM] | MIC (Klebsiella pneumoniae C2) [µM] | MIC [8] [µM] | MIC [9] [µM] | MIC [10] [µM] | MIC [11] [µM] | MIC [12] [µM] | Number of fluorescent cells (V. cholerae [13]) | Time until cells began losing shape and were noticeably shorter (V. cholerae [14]) [s] | Effect on growth of S. aureus cultures (S. aureus [15]) | CellROX oxidative signal, parental strain (S. aureus [16]) | further results
FRKKLKKLFKKLSPVIPLLKLG [B22] | 4 | 4 | 2 | 4 | 4 | 4 | 2 | 4 | 4 | 2 | 4 | 4 | 4 | 4 | 2 | 4 | increased | ≤ 30 | reduced the initial growth rate | weak signal | Share of population with strong cytoplasmic SYTOX Green signal (V. cholerae [13]; 1 μM (sublethal), agarose pads, SYTOX Green): approximately 35%; Decrease in cell contrast of dying cells (V. cholerae [13]; 1 μM, agarose pads, time-lapse phase contrast): > 90%; Effect on growth of WT strain (S. aureus [15]; S. aureus WT, 30 nM): slowed the growth; Effect on growth of sodA mutant (S. aureus [15]; S. aureus sodA, 30 nM, compared with WT): to an even greater extent; CellROX oxidative signal, sodA or sodM null mutants (S. aureus [16]): strong oxidative signal; CellROX oxidative signal (S. aureus [16]; S. aureus, 500 nM, 2.5 μM CellROX): fluorescent burst; CellROX oxidative signal (E. faecalis): fluorescent burst; Effect on growth rate (E. coli): reproducibly reduced the growth rate; Effect on growth rate (E. cloacae): reproducibly reduced the growth rate; Effect on growth rate (V. cholerae [17]): reproducibly reduced the growth rate
FRKKLKKLFKKLSPVIPLLKLG-NH2 [B22a] | 4 | 4 | 2 | 2 | 4 | 2 | 2 | 4 | 2 | 2 | 2 | 2 | 2 | 2 | 2 | 2 | increased | ≤ 30 | reduced the initial growth rate | weak signal | CellROX oxidative signal, sodA or sodM null mutants (S. aureus [16]): strong oxidative signal; Effect on growth rate (E. coli): reproducibly reduced the growth rate; Effect on growth rate (E. cloacae): reproducibly reduced the growth rate; Effect on growth rate (V. cholerae [17]): reproducibly reduced the growth rate
